According to PubChem BioAssay AID200 (DTP/NCI, 2004):
Several values for one entry are separate records, joined by “and”; a condition that tells them apart may be missing. Identical values can stand only once. Inconclusive results and toxic doses are left out. Rule for the calls: active = survival T/C of 150% or more; inactive = T/C below 125% in these data.

Tested on: B6C3F1 mice, B16 melanoma ip, median survival T/C
Test: NCI In Vivo Anticancer Drug Screen. Data for tumor model B16 Melanoma (intraperitoneal) in B6C3F1 mice
Conditions: endpoint: median survival time, schedule: Q01DX009 (ip), higher = longer survival
Procedure, shortened: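 Mice bearing transplanted tumor were dosed with compound or vehicle, and survival was recorded. Activity is expressed as the treated-group measurement (T) divided by the vehicle control measurement (C).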

[1] = dose: 12.5 mg/kg/injection, vehicle: Klucel (hydroxypropylcellulose) (HPC)
[2] = dose: 25.0 mg/kg/injection, vehicle: Klucel (hydroxypropylcellulose) (HPC)
[3] = dose: 100.0 mg/kg/injection, vehicle: Klucel (hydroxypropylcellulose) (HPC)
[4] = dose: 200.0 mg/kg/injection, vehicle: Klucel (hydroxypropylcellulose) (HPC)
[5] = dose: 6.25 mg/kg/injection, vehicle: Klucel (hydroxypropylcellulose) (HPC)
[6] = dose: 12.5 mg/kg/injection, vehicle: saline with Tween-80
[7] = dose: 25.0 mg/kg/injection, vehicle: saline with Tween-80
[8] = dose: 50.0 mg/kg/injection, vehicle: saline with Tween-80
[9] = dose: 100.0 mg/kg/injection, vehicle: saline with Tween-80
[10] = dose: 200.0 mg/kg/injection, vehicle: saline with Tween-80

Measured: T/C

CCCCCC[C@H]([C@H](C)O)n1cnc2c(N)ncnc21
inactive: [1] 122 % of control | [2] 88 % of control | dose: 50.0 mg/kg/injection, vehicle: Klucel (hydroxypropylcellulose) (HPC) 111 % of control and 92 % of control | [3] 84 % of control and 92 % of control | [4] 79 % of control

Cc1c2cc[n+](C)cc2c(C)c2c1[nH]c1ccc(O)cc12
inactive: dose: 0.12 mg/kg/injection, vehicle: water 107 % of control | dose: 0.13 mg/kg/injection, vehicle: water 117 % of control | dose: 1.25 mg/kg/injection, vehicle: saline 123 % of control | dose: 2.5 mg/kg/injection, vehicle: saline 116 % of control

Nc1ccc(C(=O)O)c(O)c1
inactive: dose: 4.7 mg/kg/injection, vehicle: saline with Tween-80 90 % of control | [5] 95 % of control | dose: 9.3 mg/kg/injection, vehicle: saline with Tween-80 113 % of control and 103 % of control | [1] 101 % of control | dose: 18.7 mg/kg/injection, vehicle: saline with Tween-80 93 % of control and 102 % of control | dose: 37.5 mg/kg/injection, vehicle: saline with Tween-80 109 % of control (2×) and 97 % of control | dose: 75.0 mg/kg/injection, vehicle: saline with Tween-80 99 % of control and 100 % of control and 106 % of control | [3] 92 % of control | dose: 150.0 mg/kg/injection, vehicle: saline with Tween-80 93 % of control | [4] 86 % of control | dose: 300.0 mg/kg/injection, vehicle: saline with Tween-80 97 % of control

Cc1ccc(S(=O)(=O)NC(=S)S)cc1
inactive: [6] 92 % of control | [7] 92 % of control | [8] 95 % of control | [9] 97 % of control | [10] 94 % of control

CCCCCCNc1nc(NCCCCCC)c2[nH]c(NCCCCCC)nc2n1
inactive: [7] 107 % of control | [8] 101 % of control | [9] 96 % of control | [10] 91 % of control

O=C(O)C1CCCN1C(=O)OCC1c2ccccc2-c2ccccc21 (stereo not given)
inactive: [3] 107 % of control | [4] 104 % of control

COc1ccc2c(c1O)-c1cccc3c1[C@@H](C2)N(CCCl)CC3
inactive: dose: 1.0 mg/kg/injection, vehicle: Klucel (hydroxypropylcellulose) (HPC) 91 % of control and 100 % of control | dose: 2.0 mg/kg/injection, vehicle: Klucel (hydroxypropylcellulose) (HPC) 100 % of control | dose: 4.0 mg/kg/injection, vehicle: Klucel (hydroxypropylcellulose) (HPC) 97 % of control and 106 % of control | dose: 8.0 mg/kg/injection, vehicle: Klucel (hydroxypropylcellulose) (HPC) 98 % of control and 102 % of control

O=Cc1c(CO)cc(O)c(O)c1O
inactive: dose: 3.13 mg/kg/injection, vehicle: Klucel (hydroxypropylcellulose) (HPC) 115 % of control | [5] 104 % of control | [1] 89 % of control | [2] 88 % of control

c1ccc2sc(SSN3CC4CCC(CC4)C3)nc2c1
inactive: [6] 95 % of control and 108 % of control | [7] 93 % of control and 102 % of control | [8] 87 % of control and 102 % of control | [9] 97 % of control | [10] 87 % of control | dose: 400.0 mg/kg/injection, vehicle: saline with Tween-80 88 % of control
